Assay results as given in PubChem BioAssay AID248 (DTP/NCI, 2004).
Toxic doses and inconclusive results are not listed.

Test system: L1210 leukemia ip in BDF1 mice, survival T/C
Experiment: NCI In Vivo Anticancer Drug Screen. Data for tumor model L1210 Leukemia (intraperitoneal) in B6D2F1 (BDF1) mice
Details: endpoint: mean survival time, higher = longer survival
How it was run: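 Read-out is survival time, reported as the treated-group measurement over the vehicle-control measurement.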

[1] = dose: 100.0 mg/kg/injection, schedule: Q01DX009 (ip), vehicle: Klucel (hydroxypropylcellulose) (HPC)
[2] = dose: 100.0 mg/kg/injection, schedule: Q04DX003 (ip), vehicle: saline with Tween-80
[3] = dose: 200.0 mg/kg/injection, schedule: Q04DX003 (ip), vehicle: saline with Tween-80
[4] = dose: 100.0 mg/kg/injection, schedule: Q01DX001 (ip), vehicle: Klucel (hydroxypropylcellulose) (HPC)
[5] = dose: 200.0 mg/kg/injection, schedule: Q01DX001 (ip), vehicle: Klucel (hydroxypropylcellulose) (HPC)

## CN(C)/N=N\N(C)C
dose: 25.0 mg/kg/injection, schedule: Q01DX009 (ip), vehicle: Klucel (hydroxypropylcellulose) (HPC)
  T/C: 98 % of control
dose: 50.0 mg/kg/injection, schedule: Q01DX009 (ip), vehicle: Klucel (hydroxypropylcellulose) (HPC)
  T/C: 103 % of control
[1]
  T/C: 101 % of control

## CC(C(c1ccccc1)c1ccc(Cl)cc1)[N+](=O)[O-] (stereo unspecified)
dose: 22.0 mg/kg/injection, schedule: Q01DX009 (ip), vehicle: saline with Tween-80
  T/C: 102 % of control
dose: 33.0 mg/kg/injection, schedule: Q01DX009 (ip), vehicle: saline with Tween-80
  T/C: 96 % of control
dose: 50.0 mg/kg/injection, schedule: Q01DX009 (ip), vehicle: saline with Tween-80
  T/C: 94 % of control
dose: 75.0 mg/kg/injection, schedule: Q01DX009 (ip), vehicle: saline with Tween-80
  T/C: 112 % of control
dose: 100.0 mg/kg/injection, schedule: Q01DX001 (ip), vehicle: saline
  T/C: 87 % of control
dose: 100.0 mg/kg/injection, schedule: Q01DX009 (ip), vehicle: saline with Tween-80
  T/C: 103 % of control
[2]
  T/C: 95 % of control
dose: 100.0 mg/kg/injection, schedule: Q04DX003 (ip), vehicle: saline
  T/C: 102 % of control
dose: 200.0 mg/kg/injection, schedule: Q01DX001 (ip), vehicle: saline
  T/C: 95 % of control
[3]
  T/C: 102 % of control
dose: 200.0 mg/kg/injection, schedule: Q04DX003 (ip), vehicle: saline
  T/C: 89 % of control
dose: 400.0 mg/kg/injection, schedule: Q01DX001 (ip), vehicle: saline
  T/C: 88 % of control

## O=Cc1cc2ccccc2[nH]1
dose: 100.0 mg/kg/injection, schedule: Q04DX002 (ip), vehicle: saline with Tween-80
  T/C: 105 % of control
dose: 200.0 mg/kg/injection, schedule: Q04DX002 (ip), vehicle: saline with Tween-80
  T/C: 102 % of control
dose: 400.0 mg/kg/injection, schedule: Q04DX002 (ip), vehicle: saline with Tween-80
  T/C: 102 % of control

## CC(=O)Nc1cc(Cl)c2[nH]cnc2n1
dose: 88.0 mg/kg/injection, schedule: Q01DX001 (ip), vehicle: Klucel (hydroxypropylcellulose) (HPC)
  T/C: 100 % of control
[4]
  T/C: 101 % of control
dose: 100.0 mg/kg/injection, schedule: Q04DX003 (ip), vehicle: water
  T/C: 110 % of control
dose: 133.0 mg/kg/injection, schedule: Q01DX001 (ip), vehicle: Klucel (hydroxypropylcellulose) (HPC)
  T/C: 90 % of control
[5]
  T/C: 95 % of control
dose: 200.0 mg/kg/injection, schedule: Q04DX003 (ip), vehicle: water
  T/C: 115 % of control
dose: 300.0 mg/kg/injection, schedule: Q01DX001 (ip), vehicle: Klucel (hydroxypropylcellulose) (HPC)
  T/C: 97 % of control

## COC(=O)C#CC(c1ccccc1)(c1ccccc1)c1ccccc1
[2]
  T/C: 90 % of control
[3]
  T/C: 87 % of control
dose: 400.0 mg/kg/injection, schedule: Q04DX003 (ip), vehicle: saline with Tween-80
  T/C: 90 % of control

## COc1c(Cl)c(C)c(Cl)c(C)c1C#CC(=O)O
[4]
  T/C: 92 % of control
dose: 100.0 mg/kg/injection, schedule: Q04DX003 (ip), vehicle: Klucel (hydroxypropylcellulose) (HPC)
  T/C: 95 % of control
[5]
  T/C: 97 % of control
dose: 200.0 mg/kg/injection, schedule: Q04DX003 (ip), vehicle: Klucel (hydroxypropylcellulose) (HPC)
  T/C: 92 % of control
dose: 400.0 mg/kg/injection, schedule: Q01DX001 (ip), vehicle: Klucel (hydroxypropylcellulose) (HPC)
  T/C: 101 % of control

## O=C1OC(c2cccc(Cl)c2)=N/C1=C\c1cccc2ccccc12
[1]
  T/C: 90 % of control
dose: 200.0 mg/kg/injection, schedule: Q01DX009 (ip), vehicle: Klucel (hydroxypropylcellulose) (HPC)
  T/C: 90 % of control
dose: 400.0 mg/kg/injection, schedule: Q01DX009 (ip), vehicle: Klucel (hydroxypropylcellulose) (HPC)
  T/C: 96 % of control

## CCCOP(=S)(N1CC1(C)C)N1CC1(C)C (stereo unspecified)
dose: 3.0 mg/kg/injection, schedule: Q01DX015 (ip), vehicle: carboxymethylcellulose (CMC)
  T/C: 112 % of control
dose: 6.0 mg/kg/injection, schedule: Q01DX015 (ip), vehicle: carboxymethylcellulose (CMC)
  T/C: 105 % of control
dose: 12.0 mg/kg/injection, schedule: Q01DX015 (ip), vehicle: carboxymethylcellulose (CMC)
  T/C: 106 % of control
dose: 25.0 mg/kg/injection, schedule: Q01DX015 (ip), vehicle: carboxymethylcellulose (CMC)
  T/C: 110 % of control
dose: 44.0 mg/kg/injection, schedule: Q01DX Z (ip), vehicle: carboxymethylcellulose (CMC)
  T/C: 103 % of control
dose: 50.0 mg/kg/injection, schedule: Q01DX015 (ip), vehicle: carboxymethylcellulose (CMC)
  T/C: 115 % of control
dose: 67.0 mg/kg/injection, schedule: Q01DX Z (ip), vehicle: carboxymethylcellulose (CMC)
  T/C: 113 % of control
dose: 100.0 mg/kg/injection, schedule: Q01DX015 (ip), vehicle: carboxymethylcellulose (CMC)
  T/C: 151 % of control
dose: 100.0 mg/kg/injection, schedule: Q01DX Z (ip), vehicle: carboxymethylcellulose (CMC)
  T/C: 111 % of control
dose: 150.0 mg/kg/injection, schedule: Q01DX Z (ip), vehicle: carboxymethylcellulose (CMC)
  T/C: 122 % of control
